17 molecules from PubChem BioAssay (NCI) can be followed below.

Test systems include COLO 205 colon; OVCAR-5 ovarian; RPMI-8226 leukemia; SK-MEL-2 melanoma; SK-OV-3 ovarian; TK-10 renal; U251 CNS; SR leukemia; HS 578T breast; DU-145 prostate.
Test in all cases: NCI tumour cell line growth inhibition, 48 h

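All cell lines were grown in 96-well plates and treated with compound for 48 hours. The concentration for full growth arrest is given as TGI.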

On to `CN1C(=O)C2C=CC1C1CCC2N(C)C1=O` (configuration not stated), for which the TGI in the experiment with COLO 205 colon, with OVCAR-5 ovarian, with RPMI-8226 leukemia, in the experiment with SK-MEL-2 melanoma, with SK-OV-3 ovarian and in the experiment on TK-10 renal was over 100 µM each time. Besides, in the experiment on U251 CNS, the TGI is over 100 µM.
For the molecule `COC(=O)c1ccc(C(=O)OC)c2nc3cc(C)ccc3nc12`, the TGI in the experiment on COLO 205 colon, in the experiment with OVCAR-5 ovarian, in the experiment on RPMI-8226 leukemia, in the experiment with SK-MEL-2 melanoma, in the experiment on SK-OV-3 ovarian and with TK-10 renal was over 100 µM in each case. Moreover, in the experiment with U251 CNS, the TGI was over 100 µM.
With `COc1cc(/C=C/c2ccc(OC)c(OC)c2OC)cc(OC)c1OC`, the TGI in the experiment with COLO 205 colon came out at 33.3 µM; in the experiment on OVCAR-5 ovarian, 74.4 µM; in the experiment with RPMI-8226 leukemia, 37.1 µM; with SK-MEL-2 melanoma, 36.1 µM; in the experiment on SK-OV-3 ovarian, 57.6 µM; with SR leukemia it was 78.5 µM. Moreover, the TGI in the experiment with TK-10 renal is over 82.9 µM; in the experiment with U251 CNS, 36.2 µM.
Take `Cc1cccc(N=C2NC(=O)C(CC(=O)Nc3ccc(C)cc3C)S2)c1` (configuration not stated): the TGI in the experiment on OVCAR-5 ovarian, in the experiment on RPMI-8226 leukemia, in the experiment on SK-MEL-2 melanoma, with SR leukemia, in the experiment on TK-10 renal and in the experiment on U251 CNS was over 100 µM each time.
Take `COC(=O)C(=O)C(C(=O)C(N)=O)c1nc2ccc(C(=O)c3ccccc3)cc2[nH]c1=O` (configuration not stated): the TGI in the experiment with HS 578T breast, in the experiment on OVCAR-5 ovarian, with RPMI-8226 leukemia, in the experiment with SK-MEL-2 melanoma, in the experiment with SK-OV-3 ovarian and with SR leukemia was over 100 µM in each case. Further, the TGI with TK-10 renal and in the experiment with U251 CNS was over 100 µM throughout.
For `ClCc1ccc(C2OCCO2)cc1`, the TGI is 37.8 µM in the experiment with COLO 205 colon; over 63.9 µM in the experiment on OVCAR-5 ovarian; 74.6 µM in the experiment on RPMI-8226 leukemia; 42.2 µM in the experiment on SK-MEL-2 melanoma; over 82 µM in the experiment with SK-OV-3 ovarian; over 79.7 µM in the experiment on SR leukemia. The TGI in the experiment with TK-10 renal is over 75.3 µM; in the experiment with U251 CNS, 17.2 µM.
For the molecule `COC(=O)[C@H]1N[C@@H](C(=O)OC)C23CCC[C@H]2CC[C@]1(C(OC)OC)C3`, the TGI in the experiment with COLO 205 colon, in the experiment with OVCAR-5 ovarian, in the experiment with RPMI-8226 leukemia, in the experiment on SK-MEL-2 melanoma, in the experiment with SK-OV-3 ovarian and with TK-10 renal was over 100 µM throughout. The TGI in the experiment with U251 CNS was over 100 µM.
On to `O=C(CSc1nc(-c2ccccc2)c(-c2ccccc2)[nH]1)NNC(=S)Nc1ccccc1`, for which the TGI in the experiment with COLO 205 colon, with OVCAR-5 ovarian, in the experiment on RPMI-8226 leukemia, with SK-MEL-2 melanoma, in the experiment with SK-OV-3 ovarian and in the experiment with SR leukemia was over 100 µM in each case. The TGI in the experiment on TK-10 renal and in the experiment on U251 CNS was over 100 µM in each case.
Turning to `[N-]=[N+]=CC(=O)COC(=O)c1ccccc1`, the TGI in the experiment on COLO 205 colon, in the experiment on DU-145 prostate, in the experiment with OVCAR-5 ovarian, in the experiment on RPMI-8226 leukemia, in the experiment with SK-MEL-2 melanoma and in the experiment on SK-OV-3 ovarian was over 100 µM throughout. The TGI in the experiment on SR leukemia, in the experiment with TK-10 renal and in the experiment on U251 CNS was over 100 µM throughout.
Turning to `O=c1cc(-c2ccccn2)[nH]c2cc(F)ccc12`, the TGI in the experiment on COLO 205 colon, in the experiment with OVCAR-5 ovarian, in the experiment with RPMI-8226 leukemia, in the experiment with SK-OV-3 ovarian, in the experiment with SR leukemia and with TK-10 renal was over 100 µM throughout.
With `CC(/C=C/NNC1=NC(c2ccccc2)C(c2ccccc2)=NN1)Sc1ccccc1N` (configuration not stated), the TGI in the experiment on COLO 205 colon is 31 µM; with OVCAR-5 ovarian, 31.3 µM; in the experiment with RPMI-8226 leukemia, over 100 µM; with SK-MEL-2 melanoma it was 21.2 µM; in the experiment on SK-OV-3 ovarian, 31 µM; in the experiment on SR leukemia, 21 µM. Besides, the TGI in the experiment with TK-10 renal was determined as 27.2 µM; in the experiment with U251 CNS, 8.39 µM.
With `CC1=NOC(=O)C1N=Nc1ccc(Br)c(C)c1` (configuration not stated), the TGI in the experiment with COLO 205 colon turned out to be 52.9 µM; in the experiment on OVCAR-5 ovarian it was 72 µM; with RPMI-8226 leukemia, 40.7 µM; in the experiment with SK-MEL-2 melanoma, 30.7 µM; in the experiment with SK-OV-3 ovarian it was 97.8 µM; in the experiment on TK-10 renal, 33.2 µM. For the same molecule, the TGI in the experiment on U251 CNS came out at 37.8 µM.
Take `N#Cc1c(C[n+]2ccccc2)c2ccccc2oc1=O`: the TGI in the experiment with COLO 205 colon, with OVCAR-5 ovarian, in the experiment with RPMI-8226 leukemia, in the experiment on SK-MEL-2 melanoma, with SK-OV-3 ovarian and with SR leukemia was over 100 µM throughout. Besides, the TGI in the experiment on U251 CNS is over 100 µM.
Take `CCOC(=O)c1c(-c2ccccc2)c(C(OC(c2ccccc2)c2c(-c3ccccc3)c(C(=O)OCC)n3ccccc23)c2ccccc2)c2ccccn12` (configuration not stated): the TGI with COLO 205 colon, in the experiment with OVCAR-5 ovarian, in the experiment with RPMI-8226 leukemia, in the experiment with SK-MEL-2 melanoma, in the experiment with SK-OV-3 ovarian and in the experiment on SR leukemia was over 100 µM in each case. The TGI with TK-10 renal is over 100 µM.
In the case of `COc1ccc2ccccc2c1CN1CCOCCOCCN(Cc2c(OC)ccc3ccccc23)CCOCCOCC1`, the TGI in the experiment with COLO 205 colon was over 100 µM; with OVCAR-5 ovarian, over 100 µM; in the experiment on RPMI-8226 leukemia, 73.2 µM; in the experiment on SK-MEL-2 melanoma it was 97.4 µM; in the experiment on SK-OV-3 ovarian it was over 100 µM; in the experiment with SR leukemia, over 100 µM. Moreover, the TGI with TK-10 renal and with U251 CNS was over 100 µM in each case.
As to `COC(=O)[C@]1(C)C(OC)=CC(=O)C2C1[C@H]1CCC[C@@H]21` (some centres not stated), the TGI in the experiment on COLO 205 colon, with OVCAR-5 ovarian, with RPMI-8226 leukemia, with SK-MEL-2 melanoma, in the experiment on SK-OV-3 ovarian and with SR leukemia was over 100 µM throughout. Moreover, the TGI in the experiment on TK-10 renal and in the experiment with U251 CNS was over 100 µM in each case.
Take `S=P(N1CCCC1)(N1CC1)N1CC1`: the TGI with COLO 205 colon, in the experiment on OVCAR-5 ovarian, in the experiment with RPMI-8226 leukemia, in the experiment on SK-MEL-2 melanoma, with SK-OV-3 ovarian and in the experiment with SR leukemia was over 100 µM each time. Also, the TGI in the experiment with TK-10 renal and in the experiment with U251 CNS was over 100 µM each time.
